Assay results: patent US20260265267A1, “NOVEL COMPOUNDS WITH MTORC2-INHIBITORY ACTIVITY AND USES THEREOF” (Aliad Biopharma, priority 2023, published 2026)

Assays:
mTORC1 [1] = molecular target: T1, mTORC1 (Homo sapiens, UniProt P42345); assay: mTORC1 inhibitory activity in HeLa cells (p70S6K Thr389 phosphorylation, Western blot); type: cell-based; conditions: 9 hours; for remaining activity at 40 µM: read-out: pThr389-S6K/S6K (% control)
T1 construct: the following experiments were conducted in HeLa cells; endogenous in cells; host or cells: HeLa
Outline: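 HeLa cells treated with compounds at 40 μM for 9 hours, lysed in RIPA, and equal protein analysed by Western blot. Phospho-p70S6K (Thr389) signal normalized to total p70S6K and expressed as percent of DMSO vehicle control.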

[2] = molecular target: T2, mTOR(CD) protein and mLST8 protein (Homo sapiens, UniProt P42345+Q9BVC4); assay: mTOR(CD)-mLST8 binding assay (co-precipitation, Western blot); conditions: read-out: inhibition of the binding between mTOR(CD) and mLST8 proteins
T2 construct: mTOR C-terminal domain (mTOR(CD), a.a. 2179-2549); made in house; host or cells: E. coli (mTOR(CD)); insect Sf9 cells (mLST8, used as a crude extract)
Experimental: mLST8 binds to the mTOR C-terminal domain (mTOR(CD), a.a. 2179-2549). After binding to mTOR, mLST8 interacts with mSin1 and Rictor to complete the formation of the mTORC2 complex, serving as a scaffold. In order to evaluate the inhibitory activity of the compounds synthesized in Examples 1 to 70 on the binding between mLST8 protein and mTOR(CD) protein, the following mTOR(CD)-mLST8 binding assay was performed. Four types of compounds: HN2210, HN2213, HN2221 and HN2313 were used as the experimental target compounds.
Specifically, mTOR(CD) protein was overexpressed in E. coli, labeled with biotin, and then partially purified. mLST8 protein was overexpressed in insect Sf9 cells to obtain mLST8 extract. mTOR(CD)-biotin and mLST8 extract were incubated at 4° C. to induce binding between mTOR(CD)-biotin and mLST8 proteins, and then the mTOR(CD)-biotin and mLST8 complex were co-precipitated using avidin-agarose beads. The relative amounts of precipitated mTOR(CD)-biotin and mLST8 proteins were measured by Western blot analysis, as shown in FIG. 4. Four types of compounds were added during the incubation process of the mTOR(CD)-biotin and mLST8 extract.

mTORC2 [3] = assay: mTORC2 inhibitory activity in primary cultured cerebral neurons (Akt Ser473 phosphorylation); type: cell-based, SD mice; conditions: for effect on Akt Ser473 phosphorylation / decrease in AKT Ser473 phosphorylation at 24 hours: 500 nM or 100 nM; for effect on Akt Ser473 phosphorylation / pSer473-AKT/AKT (% control): 24 hours
Experimental: Specifically, primary neural cells were cultured from the cerebral cortex of E16 embryos of SD mice with a gestational age 16-day (Orient Bio). The extracted brain was separated into the left and right hemispheres, the meninges were removed, and the brains were treated with trypsin in Ca^2+/Mg^2+-free HBSS solution.
The time-dependent changes in Akt Ser473 phosphorylation, Akt Thr308 phosphorylation, and LC3-II levels were measured by Western blot analysis.

mTORC2 [4] = molecular target: T3, mTORC2 (Homo sapiens, UniProt P42345); assay: mTORC2 inhibitory activity in HeLa cells (Akt Ser473 phosphorylation, Western blot); type: cell-based; conditions: for selective inhibition of mTORC2: 40 μM, versus mTORC1; for selective inhibition of mTORC2 / remaining activity at 40 µM: 9 hours; for remaining activity at 40 µM: read-out: pSer473-AKT/AKT (% control)
T3 construct: the following experiments were conducted in HeLa cells; endogenous in cells; host or cells: HeLa
Outline: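 HeLa cells treated with compounds at 40 μM for 9 hours, then lysed and analysed by Western blot with chemiluminescent detection. Phospho-Akt Ser473 signal normalised to total Akt and expressed as percent of DMSO vehicle control.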

mTORC1 [5] = assay: mTORC1 inhibitory activity in primary cultured cerebral neurons (S6K Thr389 phosphorylation); type: cell-based, SD mice; conditions: for pThr389-S6K/S6K (% control): 24 hours

remaining activity at 40 µM (mTORC1 [1]) [%] | inhibition at 4 µM [2] [%] | inhibition at 40 µM [2] [%] | selective inhibition of mTORC2 (mTORC2 [4]) | remaining activity at 40 µM (mTORC2 [4]) [%] | SMILES | effect on Akt Ser473 phosphorylation (mTORC2 [3]) | decrease in AKT Ser473 phosphorylation at 24 hours (mTORC2 [3]) [%] | pSer473-AKT/AKT (% control) (mTORC2 [3]; 500 nM) | pThr389-S6K/S6K (% control) (mTORC1 [5]; 500 nM) | selectivity for mTORC2 over mTORC1 (mTORC2 [3]) | further results
107 | 24 | 36 | selectively inhibit mTORC2 | 43 | O=C1c2cc(F)c(N3CCOCC3)cc2COc2cc3c(cc21)OCO3 [HN2210, 8-(morpholino)-9-fluoro[2]benzoxepino[3,4-f]-1,3-benzodioxol-11(6H)-one] | reduce Akt Ser473 phosphorylation | 67 | 33 | 23 | – | effect on S6K Thr389 phosphorylation (mTORC1 [1]; 40 μM): no effect; decrease in AKT Ser473 phosphorylation from 30 minutes to 6 hours (mTORC2 [3]; from 30 minutes to 6 hours): approximately 50%; effect on S6K Thr389 phosphorylation (mTORC1 [5]; 500 nM or 100 nM, time course to 24 hours (HN2304: from 6 to 24 hours)): reduced p70S6K Thr389 phosphorylation; increase in S6K Thr389 phosphorylation at 3 hours (mTORC1 [5]; at 3 hours): 49%; decrease in S6K Thr389 phosphorylation at 24 hours (mTORC1 [5]; at 24 hours): 77%
54 | – | 34 | – | 80 | O=C1c2cc(F)c(NC3CCCC3)cc2COc2cc3c(cc21)OCO3 [HN2313, 8-(cyclopentylamino)-9-fluoro-[1,3]dioxolo[4′,5′:4,5]benzo[1,2-b]benzo[e]oxepin-11(6H)-one] | reduce Akt Ser473 phosphorylation | 66 | – | – | selective mTORC2 inhibitors | pSer473-AKT/AKT (% control) (mTORC2 [3]; 100 nM): 34 % control; AKT Ser473 phosphorylation from 1 to 12 hours (mTORC2 [3]; from 1 to 12 hours): increased AKT Ser473 phosphorylation significantly; inhibition at 40 µM (mTORC2 [4]; HeLa, 9 h, read-out: reduction in Akt Ser473 phosphorylation compared to the control group): > 20%; pThr389-S6K/S6K (% control) (mTORC1 [5]; 100 nM): 141 % control; increase in S6K Thr389 phosphorylation from 1 to 6 hours (mTORC1 [5]; from 1 to 6 hours): 2~3 fold
114 | 19 | 30 | selectively inhibit mTORC2 | 51 | O=C1c2cc(F)c(NCc3ccccc3)cc2COc2cc3c(cc21)OCO3 [HN2213, 8-(benzylamino)-9-fluoro[2]benzoxepino[3,4-f]-1,3-benzodioxol-11(6H)-one] | reduce Akt Ser473 phosphorylation | 62 | 38 | 137 | selective mTORC2 inhibitors | increase in S6K Thr389 phosphorylation (mTORC1 [1]; 40 μM): 14%; increase in S6K Thr389 phosphorylation in a time-dependent manner (mTORC1 [5]; time course to 24 hours): 37%
